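Briefly, cells in 96-well plates were exposed to five compound concentrations for 48 h, and endpoints were estimated by linear interpolation. GI50: concentration for 50% inhibition of growth.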 The source made the active and inactive calls. Cut-off read from the data, not from the text of the source: active = GI50 up to about 1.1 µM and inactive = higher.
Key:
Test in all cases: growth of human tumour cells (NCI), 48 h
[1] = tested on: SK-MEL-28
[2] = tested on: SW-620
[3] = tested on: U-251
[4] = tested on: NCI-H460
[5] = tested on: OVCAR-8
[6] = tested on: RPMI-8226
[7] = tested on: Malme-3M
[8] = tested on: OVCAR-3
[9] = tested on: IGROV-1
[10] = tested on: HCC 2998
[11] = tested on: COLO 205
[12] = tested on: SF-268
[13] = tested on: UACC-62
[14] = tested on: LOX IMVI
[15] = tested on: CCRF-CEM
[16] = tested on: SK-MEL-5
[17] = tested on: OVCAR-5
[18] = tested on: UACC-257
[19] = tested on: HOP-62
[20] = tested on: HT-29

Measured: GI50

COc1ccc(/C=C2\CC3C4CC=C5C[C@@H](O)CC[C@]5(C)C4CC[C@]3(C)\C2=N\O)cc1OC (stereo not given in full)
inactive: [1] 23 µM | [2] 43.4 µM | [3] 9.2 µM | [4] 6.61 µM | [5] 8.97 µM | [6] 7.24 µM | [7] 33.3 µM | [8] 2.69 µM | [9] 38.8 µM | [10] 7.13 µM | [11] 5.13 µM | [12] 18.1 µM | [13] 10.3 µM | [14] 6.92 µM | [15] 18.2 µM | [16] 4.1 µM | [17] 16 µM | [18] 7.94 µM | [19] 18.2 µM | [20] 9.02 µM

C/C(=N\O)C1CC(CC(=O)O)C1(C)C (stereo not given)
inactive: [1] > 100 µM | [2] > 100 µM | [3] > 100 µM | [4] > 100 µM | [5] > 100 µM | [6] > 100 µM | [7] > 100 µM | [8] 10.2 µM | [9] > 100 µM | [10] 90.2 µM | [11] > 100 µM | [12] > 100 µM | [13] > 100 µM | [14] > 100 µM | [15] > 100 µM | [16] > 100 µM | [17] > 100 µM | [18] > 100 µM | [19] > 100 µM | [20] > 100 µM

CCN1C(=O)C(=Cc2ccc(-c3ccccc3)cc2)C(=O)N(CC)C1=S
inactive: [1] > 100 µM | [2] > 100 µM | [3] 75.2 µM | [4] > 100 µM | [5] > 100 µM | [6] > 100 µM | [7] > 100 µM | [8] > 100 µM | [9] > 100 µM | [10] > 100 µM | [11] > 100 µM | [12] > 100 µM | [13] > 100 µM | [14] > 100 µM | [15] 48.9 µM | [16] > 100 µM | [17] > 100 µM | [18] > 100 µM | [19] > 100 µM | [20] > 100 µM

CCOC(=O)/C=C1/Oc2ccccc2C1(C)O (stereo not given)
inactive: [1] > 100 µM | [2] > 100 µM | [3] > 100 µM | [4] > 100 µM | [5] > 100 µM | [6] 84.5 µM | [7] > 100 µM | [8] > 100 µM | [9] > 100 µM | [10] > 100 µM | [11] > 100 µM | [12] > 100 µM | [13] > 100 µM | [14] > 100 µM | [15] > 100 µM | [16] > 100 µM | [17] > 100 µM | [18] > 100 µM | [19] > 100 µM | [20] > 100 µM

CC1OC(O)CC(OC(=O)c2ccccc2)C1OC(=O)c1ccccc1 (stereo not given)
inactive: [1] 16.1 µM | [2] 13.3 µM | [3] 30.1 µM | [4] 49.4 µM | [5] 15.7 µM | [6] 8.18 µM | [7] 16.6 µM | [8] 19.1 µM | [9] 12.4 µM | [10] 43.6 µM | [11] 27 µM | [12] 16.2 µM | [13] 16.7 µM | [14] 11.1 µM | [15] 10.3 µM | [16] 16.7 µM | [17] > 100 µM | [18] 15.3 µM | [19] 71.6 µM | [20] 21.6 µM

From ChEMBL document CHEMBL1201862, “PubChem BioAssay data set” (2004)
